One data set has as its target T1, 5-HT2C receptor (Homo sapiens, UniProt P28335).
T1 construct: host or cells: U2OS
Description: Human 5-HT2C functional assay (beta-arrestin2 recruitment, U2OS_HTR2C_β-Arrestin cells). The format is cell-based. The settings on record: for EC50: beta-arrestin2 recruitment, U2OS_HTR2C_β-Arrestin cells, 1.5 h incubation, read-out: EC50 5-HT2C (potency in functional assay); for Emax: relative efficacy vs response to 10 μM 5-HT or maximal 5-HT effect (100%). The method, boiled down:
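EC50 and relative efficacy came from 4-parameter variable-slope fits, normalised to 10 µM 5-HT or maximal 5-HT response (100%). Luminescent β-galactosidase enzyme-complementation signal was read after 1.5 h compound exposure in U2OS_HTR2C_β-Arrestin cells held in 1% serum medium from the prior day.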
Background: Recruitment of arrestin is a read-out of receptor activation apart from second messengers.

Data set [1] can be described thus: Metabolic stability in human liver microsomes, unbound intrinsic clearance (Cl int/fu mic). The format is in vitro ADME. As to conditions: human, liver microsomes, pH 7.4, human liver microsomes 0.25 mg/mL, 0.5 μM compound, NADPH, read-out: Cl int, mic unb. (h) [l/h/kg] (unbound intrinsic clearance, human). The method, boiled down:
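Unbound intrinsic clearance is CLint divided by fu mic, with the unbound fraction measured by 4 h HTDialysis at 37 °C of 0.25 mg/ml microsomes spiked with 0.5 µM compound. For CLint, 0.5 µM compound was incubated with 0.25 mg/mL human microsomes and 1.0 mM NADPH (pH 7.4, 37 °C). Substrate loss over 30 min was measured by LC-MS/MS and t1/2 assumed first-order kinetics.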
For orientation: Liver microsomes are a subcellular fraction often used to study metabolism.

Structures can show the parent of a compound that is named as a salt.

T1 sequence (P28335 33-458): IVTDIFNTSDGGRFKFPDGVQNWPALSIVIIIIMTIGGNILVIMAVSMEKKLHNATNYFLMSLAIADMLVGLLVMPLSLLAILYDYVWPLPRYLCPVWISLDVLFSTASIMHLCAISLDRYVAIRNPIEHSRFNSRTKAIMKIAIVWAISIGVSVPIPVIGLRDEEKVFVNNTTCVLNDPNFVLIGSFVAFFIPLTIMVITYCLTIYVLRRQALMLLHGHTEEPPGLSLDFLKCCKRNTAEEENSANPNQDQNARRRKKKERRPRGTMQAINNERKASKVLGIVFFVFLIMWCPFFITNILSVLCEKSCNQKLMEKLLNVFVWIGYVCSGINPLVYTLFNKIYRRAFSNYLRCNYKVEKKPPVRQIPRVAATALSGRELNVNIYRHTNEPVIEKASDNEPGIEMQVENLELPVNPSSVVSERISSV
T1 sequence (P32121 whole entry partner): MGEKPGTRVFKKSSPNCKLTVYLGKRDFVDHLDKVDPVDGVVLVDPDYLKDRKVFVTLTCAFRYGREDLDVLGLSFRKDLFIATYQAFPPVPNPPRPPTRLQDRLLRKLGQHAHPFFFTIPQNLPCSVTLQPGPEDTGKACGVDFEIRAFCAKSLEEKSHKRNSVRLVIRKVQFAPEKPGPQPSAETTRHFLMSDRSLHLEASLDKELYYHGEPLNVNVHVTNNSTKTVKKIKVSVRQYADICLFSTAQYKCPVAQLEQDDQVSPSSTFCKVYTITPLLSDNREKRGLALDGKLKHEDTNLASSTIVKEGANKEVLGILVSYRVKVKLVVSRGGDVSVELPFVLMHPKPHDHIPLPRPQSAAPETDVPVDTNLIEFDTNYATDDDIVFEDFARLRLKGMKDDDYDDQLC

Turning to `COc1nc(OC2CCC(C(F)(F)F)CC2)c(F)cc1CNC(=O)[C@@H]1C[C@H]2C[C@H]2N1` (stereo partly drawn) [Example 82, (1R,3 S,5R)—N-[[5-Fluoro-2-methoxy-6-[4-(trifluoromethyl)cyclohexoxy]-3-pyridyl]methyl]-4-azabicyclo[3.1.0]hexane-3-carboxamide], on 5-HT2C receptor, the EC50 was in the range of 0.02 to 0.2 µM and the Emax was above 70%. Moreover, the CLint scaled at 0.5 μM in data set [1] was 5 to 50 L/h/kg.
In the same order, the values of `COc1nc(OCC(F)F)c(F)cc1CNC(=O)[C@@H]1CCCN1` [Example 86, (2S)—N-[[6-(2,2-Difluoroethoxy)-5-fluoro-2-methoxy-3-pyridyl]methyl]pyrrolidine-2-carboxamide; 2,2,2-trifluoroacetic Acid] are below 0.02 µM, above 70% and below 5 L/h/kg.
For `COc1nc(OCC(F)(F)F)c(F)cc1CNC(=O)[C@@H]1CCCN1` [Example 87, (2S)—N-[[5-Fluoro-2-methoxy-6-(2,2,2-trifluoroethoxy)-3-pyridyl]methyl]-pyrrolidine-2-carboxamide; 2,2,2-trifluoroacetic Acid], on 5-HT2C receptor, the EC50 is below 0.02 µM and the Emax is above 70%. In addition, the CLint scaled at 0.5 μM in data set [1] was below 5 L/h/kg.
Consider `COc1nc(OCC2CC(F)(F)C2(F)F)c(F)cc1CNC(=O)[C@@H]1CCCN1C` (stereo partly drawn) [Example 90, (2S)—N-[[5-Fluoro-2-methoxy-6-[(2,2,3,3-tetrafluorocyclobutyl)methoxy]-3-pyridyl]methyl]-1-methyl-pyrrolidine-2-carboxamide Hydrochloride], for which, on 5-HT2C receptor, the EC50 is below 0.02 µM and the Emax was above 70%. Besides, in data set [1], the CLint scaled at 0.5 μM was below 5 L/h/kg.
As to `COc1nc(OCC(F)(F)C(F)F)c(F)cc1CNC(=O)[C@@H]1CCCN1C` [Example 91, (2S)—N-[[5-Fluoro-2-methoxy-6-(2,2,3,3-tetrafluoropropoxy)-3-pyridyl]methyl]-1-methyl-pyrrolidine-2-carboxamide Hydrochloride], on 5-HT2C receptor, the EC50 is below 0.02 µM and the Emax is above 70%. For the same compound, the CLint scaled at 0.5 μM in data set [1] is below 5 L/h/kg.
With `COc1nc(OCC2CC(F)(F)C2)c(F)cc1CNC(=O)[C@@H]1CCCN1C` [Example 92, (2S)—N-[[6-[(3,3-Difluorocyclobutyl)methoxy]-5-fluoro-2-methoxy-3-pyridyl]-methyl]-1-methyl-pyrrolidine-2-carboxamide Hydrochloride], on 5-HT2C receptor, the concentration giving a half-maximal response (EC50) was below 0.02 µM and the Emax was above 70%. Also, in data set [1], the CLint scaled at 0.5 μM was below 5 L/h/kg.
In the same order, the values of `COc1nc(OC2CCCC2F)c(F)cc1CNC(=O)[C@@H]1CCCN1` (stereo partly drawn) [Example 93, (2S)—N-[[5-Fluoro-6-(2-fluorocyclopentoxy)-2-methoxy-3-pyridyl]methyl]-pyrrolidine-2-carboxamide; 2,2,2-trifluoroacetic Acid] are below 0.02 µM, above 70% and below 5 L/h/kg.
With `COc1nc(OC2CC(F)(F)C2)c(F)cc1CNC(=O)[C@@H]1C[C@@H](F)CN1` [Example 94, (2S,4R)—N-[[6-(3,3-Difluorocyclobutoxy)-5-fluoro-2-methoxy-3-pyridyl]methyl]-4-fluoro-pyrrolidine-2-carboxamide Hydrochloride], at 5-HT2C receptor, the EC50 is below 0.02 µM and the Emax was above 70%. The CLint scaled at 0.5 μM in data set [1] was below 5 L/h/kg.
Take `COc1nc(OC2CCCC3C2C3(F)F)c(F)cc1CNC(=O)[C@@H]1CCCN1` (stereo partly drawn) [Example 95, (2S)—N-[[6-(7,7-Difluoronorcaran-2-yl)oxy-5-fluoro-2-methoxy-3-pyridyl]methyl]-pyrrolidine-2-carboxamide]: on 5-HT2C receptor, the 50% effective concentration (EC50) is below 0.02 µM and the Emax was above 70%. For the same compound, the CLint scaled at 0.5 μM in data set [1] fell in the range of 5 to 50 L/h/kg.
In the same order, the values of `COc1nc(OCC2(C(F)F)CC2)c(F)cc1CNC(=O)[C@@H]1CCCN1C` [Example 96, (2S)—N-[[6-[[1-(Difluoromethyl)cyclopropyl]methoxy]-5-fluoro-2-methoxy-3-pyridyl]methyl]-1-methyl-pyrrolidine-2-carboxamide; (2S,3S)-2,3-dihydroxybutanedioic Acid] are below 0.02 µM, above 70% and below 5 L/h/kg.
Taken in the same sequence, the figures for `COc1nc(OCC2(C(F)F)CC2)c(F)cc1CNC(=O)[C@@H]1CCCN1` [Example 97, (2S)—N-[[6-[[1-(Difluoromethyl)cyclopropyl]methoxy]-5-fluoro-2-methoxy-3-pyridyl]methyl]pyrrolidine-2-carboxamide; (2S,3S)-2,3-dihydroxybutanedioic Acid] were below 0.02 µM, above 70% and below 5 L/h/kg.
Taken in the same sequence, the figures for `COc1nc(OCC2(C(F)(F)F)CC2)c(F)cc1CN(C)C(=O)[C@@H]1CCCN1C` [Example 98, (2S)—N-[[5-Fluoro-2-methoxy-6-[[1-(trifluoromethyl)cyclopropyl]methoxy]-3-pyridyl]methyl]-N,1-dimethyl-pyrrolidine-2-carboxamide Hydrochloride] were 0.02 to 0.2 µM, 50 to 70% and below 5 L/h/kg.
In the case of `COc1nc(OC2CC(F)(F)C2)c(F)cc1CN(C)C(=O)[C@@H]1CCCN1C` [Example 99, (2S)—N-[[6-(3,3-Difluorocyclobutoxy)-5-fluoro-2-methoxy-3-pyridyl]methyl]-N,1-dimethyl-pyrrolidine-2-carboxamide Hydrochloride], on 5-HT2C receptor, the EC50 lay within 0.02 to 0.2 µM and the Emax lay within 50 to 70%. The CLint scaled at 0.5 μM in data set [1] is below 5 L/h/kg.
Taken in the same sequence, the figures for `COc1nc(OCC(F)(F)F)c(F)cc1CNC(=O)[C@@H]1CCCN1C` [Example 100, (2S)—N-[[5-Fluoro-2-methoxy-6-(2,2,2-trifluoroethoxy)-3-pyridyl]methyl]-1-methyl-pyrrolidine-2-carboxamide Hydrochloride] were below 0.02 µM, above 70% and below 5 L/h/kg.
Taken in the same sequence, the figures for `COc1nc(OC2CC(F)(F)C2)c(F)cc1CNC(=O)[C@H](C)N1CCC1` [Example 101, (2S)-2-(Azetidin-1-yl)-N-[[6-(3,3-difluorocyclobutoxy)-5-fluoro-2-methoxy-3-pyridyl]methyl]propanamide Hydrochloride] were below 0.02 µM, above 70% and below 5 L/h/kg.
In the same order, the values of `COc1nc(OCC(F)(F)C(F)F)c(F)cc1CN(C)C(=O)[C@@H]1CCCN1C` [Example 102, (2S)—N-[[5-Fluoro-2-methoxy-6-(2,2,3,3-tetrafluoropropoxy)-3-pyridyl]methyl]-N,1-dimethyl-pyrrolidine-2-carboxamide Hydrochloride] are 0.2 to 1 µM, 50 to 70% and below 5 L/h/kg.
Consider `COc1nc(OCC2CC(F)(F)C2(F)F)c(F)cc1CN(C)C(=O)[C@@H]1CCCN1C` (stereo partly drawn) [Example 103, (2S)—N-[[5-Fluoro-2-methoxy-6-[(2,2,3,3-tetrafluorocyclobutyl)methoxy]-3-pyridyl]methyl]-N,1-dimethyl-pyrrolidine-2-carboxamide Hydrochloride], for which, at 5-HT2C receptor, the EC50 is 0.02 to 0.2 µM and the Emax lay within 50 to 70%. Besides, the CLint scaled at 0.5 μM in data set [1] is below 5 L/h/kg.
Turning to `COc1nc(OC2CC(OC)C2)c(F)cc1CNC(=O)[C@@H]1CCCN1` (stereo partly drawn) [Example 104, (2S)—N-[[5-Fluoro-2-methoxy-6-(3-methoxycyclobutoxy)-3-pyridyl]methyl]-pyrrolidine-2-carboxamide Hydrochloride], on 5-HT2C receptor, the EC50 was below 0.02 µM and the Emax is above 70%. The CLint scaled at 0.5 μM in data set [1] is below 5 L/h/kg.
With `COc1nc(OC2CC(C(F)(F)F)C2)c(F)cc1CNC(=O)[C@@H]1CCCN1` (stereo partly drawn) [Example 105, (2S)—N-[[5-Fluoro-2-methoxy-6-[3-(trifluoromethyl)cyclobutoxy]-3-pyridyl]-methyl]pyrrolidine-2-carboxamide Hydrochloride], on 5-HT2C receptor, the EC50 is below 0.02 µM and the Emax was above 70%. Also, the CLint scaled at 0.5 μM in data set [1] fell in the range of 5 to 50 L/h/kg.
In the same order, the values of `COc1nc(OCC2CC(F)(F)C2)c(F)cc1CN(C)C(=O)[C@@H]1CCCN1C` [Example 106, (2S)—N-[[6-[(3,3-Difluorocyclobutyl)methoxy]-5-fluoro-2-methoxy-3-pyridyl]-methyl]-N,1-dimethyl-pyrrolidine-2-carboxamide Hydrochloride] are 0.02 to 0.2 µM, 30 to 50% and below 5 L/h/kg.
With `COc1nc(OC2CC(F)(F)C2)cnc1CNC(=O)[C@@H]1CCCN1` [Example 107, (2S)—N-[[5-(3,3-Difluorocyclobutoxy)-3-methoxy-pyrazin-2-yl]methyl]pyrrolidine-2-carboxamide; 2,2,2-trifluoroacetic Acid], on 5-HT2C receptor, the EC50 was in the range of 0.2 to 1 µM and the Emax is above 70%. In addition, the CLint scaled at 0.5 μM in data set [1] is below 5 L/h/kg.
As for `COc1nc(OC2CCC(F)(F)CC2)cnc1CNC(=O)[C@@H]1CCCN1` [Example 108, (2S)—N-[[5-(4,4-Difluorocyclohexoxy)-3-methoxy-pyrazin-2-yl]methyl]pyrrolidine-2-carboxamide; 2,2,2-trifluoroacetic Acid], at 5-HT2C receptor, the EC50 fell in the range of 0.02 to 0.2 µM and the Emax is above 70%. Moreover, the CLint scaled at 0.5 μM in data set [1] was below 5 L/h/kg.

In general, EC50 refers to the concentration that produces a half-maximal response. For orientation: Emax means the greatest response seen or fitted, relative to the assay's reference.
